Reference: patent publication US20250034216A1, “STEREOSELECTIVE COVALENT LIGANDS FOR ONCOGENIC AND IMMUNOLOGICAL PROTEINS” (The Scripps Research Institute, priority 2021, published 2025)

Experiments:
RTN4_C1101 = molecular target: T1, RTN4_C1101 (Homo sapiens, UniProt Q9NQC3); assay: IA-DTB cysteine engagement; assay type: binding; conditions: 22Rv1 cells, 20 μM probe, 1 h, relative to DMSO
T1 construct: endogenous in cells; host or cells: 22Rv1
T1 sequence (Q9NQC3 1-1192): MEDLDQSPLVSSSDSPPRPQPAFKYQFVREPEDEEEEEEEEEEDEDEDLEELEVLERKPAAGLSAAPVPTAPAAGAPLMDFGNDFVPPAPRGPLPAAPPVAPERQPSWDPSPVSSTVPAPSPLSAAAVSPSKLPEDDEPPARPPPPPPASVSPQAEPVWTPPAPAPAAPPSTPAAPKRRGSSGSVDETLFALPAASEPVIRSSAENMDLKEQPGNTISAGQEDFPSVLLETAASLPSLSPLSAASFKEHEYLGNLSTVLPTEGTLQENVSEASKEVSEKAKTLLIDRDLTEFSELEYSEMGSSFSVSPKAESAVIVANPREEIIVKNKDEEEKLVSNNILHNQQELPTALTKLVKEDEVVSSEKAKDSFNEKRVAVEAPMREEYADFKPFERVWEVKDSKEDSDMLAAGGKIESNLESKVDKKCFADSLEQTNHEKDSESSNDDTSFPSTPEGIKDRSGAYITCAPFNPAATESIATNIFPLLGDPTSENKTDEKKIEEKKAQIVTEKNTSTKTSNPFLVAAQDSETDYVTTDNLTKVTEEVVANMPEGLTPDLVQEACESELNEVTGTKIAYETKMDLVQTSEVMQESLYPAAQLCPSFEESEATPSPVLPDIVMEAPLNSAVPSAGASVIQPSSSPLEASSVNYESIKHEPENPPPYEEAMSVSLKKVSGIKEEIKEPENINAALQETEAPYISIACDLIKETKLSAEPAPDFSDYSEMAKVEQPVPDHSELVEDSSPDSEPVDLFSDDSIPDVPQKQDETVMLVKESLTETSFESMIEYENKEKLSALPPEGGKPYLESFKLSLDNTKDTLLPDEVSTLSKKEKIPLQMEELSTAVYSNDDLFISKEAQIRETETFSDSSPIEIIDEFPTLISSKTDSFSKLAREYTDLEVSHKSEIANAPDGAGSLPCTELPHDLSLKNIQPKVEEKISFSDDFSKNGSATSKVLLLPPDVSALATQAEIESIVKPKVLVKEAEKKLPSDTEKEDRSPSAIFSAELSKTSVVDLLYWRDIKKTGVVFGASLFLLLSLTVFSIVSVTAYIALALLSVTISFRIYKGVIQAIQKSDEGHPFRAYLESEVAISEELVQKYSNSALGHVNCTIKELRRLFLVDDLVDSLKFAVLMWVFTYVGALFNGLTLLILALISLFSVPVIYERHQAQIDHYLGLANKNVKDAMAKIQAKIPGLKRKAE
How it was run: (§1)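 Competitive chemoproteomics: residual cysteine reactivity toward IA-DTB in lysates from probe-treated cells was quantified by TMT reporter ions relative to DMSO-treated controls. Replicates sharing cell line, probe, concentration and duration were averaged.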

EPHX4_C287 = molecular target: T2, EPHX4_C287 (Homo sapiens, UniProt Q8IUS5); assay: IA-DTB cysteine engagement; assay type: binding; conditions: 22Rv1 cells, 20 μM probe, 1 h, relative to DMSO
T2 construct: endogenous in cells; host or cells: 22Rv1
T2 sequence (Q8IUS5 1-362): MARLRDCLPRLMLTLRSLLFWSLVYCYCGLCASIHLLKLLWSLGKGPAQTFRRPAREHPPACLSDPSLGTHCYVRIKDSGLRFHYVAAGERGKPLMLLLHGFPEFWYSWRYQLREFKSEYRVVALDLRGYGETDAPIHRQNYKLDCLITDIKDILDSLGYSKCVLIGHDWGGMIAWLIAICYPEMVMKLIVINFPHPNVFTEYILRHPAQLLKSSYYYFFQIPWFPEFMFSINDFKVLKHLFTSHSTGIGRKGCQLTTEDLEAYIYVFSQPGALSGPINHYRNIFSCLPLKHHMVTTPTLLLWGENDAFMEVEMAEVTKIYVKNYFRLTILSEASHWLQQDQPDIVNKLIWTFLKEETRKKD
How it was run: as §1

SMILES | % engagement RTN4_C1101 (RTN4_C1101) [%] | % engagement EPHX4_C287 (EPHX4_C287) [%]
C=CC(=O)N1C[C@H](c2ccc(Br)cc2)[C@H]1C(=O)Nc1cccc2cccnc12 [MY-3A, (2S,3S)-1-acryloyl-3-(4-bromophenyl)-N-(quinolin-8-yl)azetidine-2-carboxamide] | 91.5 | 28
C=CC(=O)N1C[C@H](c2ccc(Br)cc2)[C@@H]1C(=O)Nc1cccc2cccnc12 [MY-1B, (2R,3S)-1-acryloyl-3-(4-bromophenyl)-N-(quinolin-8-yl)azetidine-2-carboxamide] | 87.5 | 44.5
C=CC(=O)N1C[C@H](c2ccc(Br)cc2)[C@H]1C(=O)Nc1cccc2cccnc12 [MY-3B, (2S,3S)-1-acryloyl-3-(4-bromophenyl)-N-(quinolin-8-yl)azetidine-2-carboxamide] | 85 | 86.5
C=CC(=O)N1C[C@@H](c2ccc(Br)cc2)[C@H]1C(=O)Nc1cccc2cccnc12 [MY-1A, (2S,3R)-1-acryloyl-3-(4-bromophenyl)-N-(quinolin-8-yl)azetidine-2-carboxamide] | 85 | 23.5
